molecular target: human TrkA receptor (Homo sapiens (Human), UniProt P04629); assay: DiscoverX PathHunter TrkA functional assay; format: cell-based; settings: U2OS cells expressing human TrkA-ProLink, Shc1-EA and p75NTR; compound 1 h, then NGF at ~80% of maximal response for 3 h; luminescence
Sequence (P04629 33-796): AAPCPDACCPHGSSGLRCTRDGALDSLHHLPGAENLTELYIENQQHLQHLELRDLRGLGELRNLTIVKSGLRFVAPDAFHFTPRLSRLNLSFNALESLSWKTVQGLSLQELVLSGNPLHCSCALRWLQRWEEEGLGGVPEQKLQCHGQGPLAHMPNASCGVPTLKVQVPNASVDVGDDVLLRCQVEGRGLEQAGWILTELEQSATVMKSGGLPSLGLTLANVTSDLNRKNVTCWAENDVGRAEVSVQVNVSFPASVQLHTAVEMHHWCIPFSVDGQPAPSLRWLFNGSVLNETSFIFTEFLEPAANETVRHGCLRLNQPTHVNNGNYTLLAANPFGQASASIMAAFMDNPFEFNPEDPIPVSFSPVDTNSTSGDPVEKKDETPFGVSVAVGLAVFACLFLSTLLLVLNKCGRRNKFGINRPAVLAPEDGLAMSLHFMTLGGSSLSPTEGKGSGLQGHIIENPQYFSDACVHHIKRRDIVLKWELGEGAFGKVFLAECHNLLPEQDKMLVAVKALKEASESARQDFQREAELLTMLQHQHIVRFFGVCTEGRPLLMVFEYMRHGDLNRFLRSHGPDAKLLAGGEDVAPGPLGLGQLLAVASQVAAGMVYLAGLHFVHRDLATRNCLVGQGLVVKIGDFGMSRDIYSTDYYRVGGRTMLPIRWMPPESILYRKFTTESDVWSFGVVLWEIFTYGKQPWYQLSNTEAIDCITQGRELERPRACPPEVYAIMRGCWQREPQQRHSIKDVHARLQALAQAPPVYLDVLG

Row | IC50 [nM] | SMILES
1 | 110 | O=C(Nc1cc(-c2ccncc2)nn1-c1ccc(F)cc1)c1ccc(Cl)c(-c2cc[nH]n2)c1 [Compound 42, 4-chloro-N-[1-(4-fluorophenyl)-3-pyridin-4-yl-1H-pyrazol-5-yl]-3-(1H-pyrazol-3-yl)benzamide]
2 | 46 | Cn1ccc(-c2cc(C(=O)Nc3cc(-c4n[nH]c(=O)n4C)nn3-c3ccccc3)ccc2C(F)(F)F)n1 [Compound 16, N-[3-(4-methyl-5-oxo-4,5-dihydro-1H-1,2,4-triazol-3-yl)-1-phenyl-1H-pyrazol-5-yl]-3-(1-methyl-1H-pyrazol-3-yl)-4-(trifluoromethyl)benzamide]
3 | 1240 | O=C(Nc1cc(-c2ccncc2)nn1-c1ccc(F)cc1)c1ccc(C(F)(F)F)c(-c2cc[nH]c(=O)c2)c1 [Compound 47, N-[1-(4-fluorophenyl)-3-pyridin-4-yl-1H-pyrazol-5-yl]-3-(2-oxo-1,2-dihydropyridin-4-yl)-4-(trifluoromethyl)benzamide]
4 | 180 | Cn1ccc(-c2cc(C(=O)Nc3cnoc3-c3ccccc3)ccc2C(F)(F)F)n1 [Compound 37, 3-(1-methyl-1H-pyrazol-3-yl)-N-(5-phenylisoxazol-4-yl)-4-(trifluoromethyl)benzamide]
5 | 180 | Cc1cc(-c2nn(C)cc2NC(=O)c2ccc(C(F)(F)F)c(-c3ccn(C)n3)c2)[nH]n1 [Compound 74, N-(1,5′-dimethyl-1H,2′H-3,3′-bipyrazol-4-yl)-3-(1-methyl-1H-pyrazol-3-yl)-4-(trifluoromethyl)benzamide]
6 | 4.9 | NC(=O)c1ccnc(-c2cc(NC(=O)c3cc(-c4ncccn4)c(C(F)(F)F)cc3F)n(-c3ccc(F)cc3)n2)n1 [Compound 84, 2-(5-(2-fluoro-5-(pyrimidin-2-yl)-4-(trifluoromethyl)benzamido)-1-(4-fluorophenyl)-1H-pyrazol-3-yl)pyrimidine-4-carboxamide]
7 | 85 | O=C(Nc1cn[nH]c1-c1ccccc1)c1cc(-c2cc[nH]n2)c(C(F)(F)F)cc1F [Compound 62, 2-fluoro-N-(5-phenyl-1H-pyrazol-4-yl)-5-(1H-pyrazol-3-yl)-4-(trifluoromethyl)benzamide]
8 | 48 | NC(=O)c1ccc(-c2cc(NC(=O)c3ccc(C(F)(F)F)cc3Cl)n(-c3ccccc3)n2)nc1 [Compound 4, 6-[5-({[2-chloro-4-(trifluoromethyl)phenyl]carbonyl}amino)-1-phenyl-1H-pyrazol-3-yl]pyridine-3-carboxamide]
9 | 89 | Cn1ccc(-c2cc(C(=O)Nc3cc(-c4ccc(=O)[nH]n4)nn3-c3ccccc3)ccc2OC(F)(F)F)n1 [Compound 71, 3-(1-methyl-1H-pyrazol-3-yl)-N-[3-(6-oxo-1,6-dihydropyridazin-3-yl)-1-phenyl-1H-pyrazol-5-yl]-4-(trifluoromethoxy)benzamide]
10 | 5.4 | Cc1csc(-c2cc(C(=O)Nc3cc(C)nn3-c3ccccc3)ccc2C(F)(F)F)n1 [Compound 3, N-(3-methyl-1-phenyl-1H-pyrazol-5-yl)-3-(4-methyl-1,3-thiazol-2-yl)-4-(trifluoromethyl)benzamide]
11 | 3.6 | Cn1cc(Cc2cc(NC(=O)c3ccc(C(F)(F)F)c(-c4ccn(C)n4)c3)n(-c3ccc(F)cc3)n2)cn1 [Compound 90, N-(1-(4-fluorophenyl)-3-((1-methyl-1H-pyrazol-4-yl)methyl)-1H-pyrazol-5-yl)-3-(1-methyl-1H-pyrazol-3-yl)-4-(trifluoromethyl)benzamide]
12 | 18 | Cn1ccc(-c2cc(C(=O)Nc3cn[nH]c3-c3ccccc3)ccc2C(F)(F)F)n1 [Compound 18, 3-(1-methyl-1H-pyrazol-3-yl)-N-(5-phenyl-1H-pyrazol-4-yl)-4-(trifluoromethyl)benzamide]
13 | 6.7 | O=C(Nc1sc(-c2cnn(CCO)c2)nc1-c1ccccc1)c1cc(-c2ncccn2)c(C(F)(F)F)cc1F [Compound 106, 2-fluoro-N-(2-(1-(2-hydroxyethyl)-1H-pyrazol-4-yl)-4-phenylthiazol-5-yl)-5-(pyrimidin-2-yl)-4-(trifluoromethyl)benzamide]
14 | 1700 | O=C(Nc1cc(-c2ccncc2)nn1-c1ccc(F)cc1)c1ccc(C(F)(F)F)c(-c2cccnc2)c1 [Compound 35, N-[1-(4-fluorophenyl)-3-pyridin-4-yl-1H-pyrazol-5-yl]-3-pyridin-3-yl-4-(trifluoromethyl)benzamide]
15 | 1400 | Cn1ccc(-c2cc(C(=O)Nc3cc(-c4ccccc4)nn3C)ccc2C(F)(F)F)n1 [Compound 20, N-(1-methyl-3-phenyl-1H-pyrazol-5-yl)-3-(1-methyl-1H-pyrazol-3-yl)-4-(trifluoromethyl)benzamide]
16 | 4.5 | Cn1ccc(-c2cc(C(=O)Nc3cn(C)nc3-c3ccccc3)c(F)cc2C(F)(F)F)n1 [Compound 65, 2-fluoro-N-(1-methyl-3-phenyl-1H-pyrazol-4-yl)-5-(1-methyl-1H-pyrazol-3-yl)-4-(trifluoromethyl)benzamide]

Row | IC50 [nM] | SMILES
17 | 3.7 | Cn1ccc(-c2cc(C(=O)Nc3cc(Cn4ncnn4)nn3-c3ccccc3)ccc2C(F)(F)F)n1 [Compound 67, 3-(1-methyl-1H-pyrazol-3-yl)-N-[1-phenyl-3-(2H-tetrazol-2-ylmethyl)-1H-pyrazol-5-yl]-4-(trifluoromethyl)benzamide]
18 | 3.8 | Cn1ccc(-c2cc(C(=O)Nc3cc(Cc4ccc[nH]c4=O)nn3-c3ccc(F)cc3)ccc2C(F)(F)F)n1 [Compound 98, N-(1-(4-fluorophenyl)-3-((2-oxo-1,2-dihydropyridin-3-yl)methyl)-1H-pyrazol-5-yl)-3-(1-methyl-1H-pyrazol-3-yl)-4-(trifluoromethyl)benzamide]
19 | 1.7 | Cn1ccc(-c2cc(C(=O)Nc3cc(Cc4cnc(N)cn4)nn3-c3ccc(F)cc3)ccc2C(F)(F)F)n1 [Compound 94, N-(3-((5-aminopyrazin-2-yl)methyl)-1-(4-fluorophenyl)-1H-pyrazol-5-yl)-3-(1-methyl-1H-pyrazol-3-yl)-4-(trifluoromethyl)benzamide]
20 | 4.6 | Cn1ccc(-c2cc(C(=O)Nc3c4c(nn3-c3ccccc3)CC(=O)NC4)c(F)cc2C(F)(F)F)n1 [Compound 108, 2-fluoro-5-(1-methyl-1H-pyrazol-3-yl)-N-(6-oxo-2-phenyl-4,5,6,7-tetrahydro-2H-pyrazolo[4,3-c]pyridin-3-yl)-4-(trifluoromethyl)benzamide]
21 | 19 | Cn1ccc(-c2cc(C(=O)Nc3c(-c4ccccc4)ncn3C)ccc2C(F)(F)F)n1 [Compound 12, N-(1-methyl-4-phenyl-1H-imidazol-5-yl)-3-(1-methyl-1H-pyrazol-3-yl)-4-(trifluoromethyl)benzamide]
22 | 1.6 | Cn1ccc(-c2cc(C(=O)Nc3cc(-c4ccc(=O)[nH]n4)nn3-c3ccccc3)c(Cl)cc2C(F)(F)F)n1 [Compound 55, 2-chloro-5-(1-methyl-1H-pyrazol-3-yl)-N-[3-(6-oxo-1,6-dihydropyridazin-3-yl)-1-phenyl-1H-pyrazol-5-yl]-4-(trifluoromethyl)benzamide]
23 | 1.7 | Cc1cc(-n2nc(C(=O)NCc3ccns3)cc2NC(=O)c2ccc(C(F)(F)F)c(-c3ccn(C)n3)c2)[nH]n1 [Compound 25, N-(isothiazol-5-ylmethyl)-5′-methyl-5-({[3-(1-methyl-1H-pyrazol-3-yl)-4-(trifluoromethyl)phenyl]carbonyl}amino)-2′H-1,3′-bipyrazole-3-carboxamide]
24 | 1.6 | Cn1nnnc1Cc1cc(NC(=O)c2cc(-c3ncccn3)c(C(F)(F)F)cc2F)n(-c2ccc(F)cc2)n1 [Compound 104, 2-fluoro-N-(1-(4-fluorophenyl)-3-((1-methyl-1H-tetrazol-5-yl)methyl)-1H-pyrazol-5-yl)-5-(pyrimidin-2-yl)-4-(trifluoromethyl)benzamide]
25 | 150 | Cc1nc(NC(=O)c2ccc(C(F)(F)F)c(-c3ccn(C)n3)c2)n(-c2ccccc2)n1 [Compound 15, N-(3-methyl-1-phenyl-1H-1,2,4-triazol-5-yl)-3-(1-methyl-1H-pyrazol-3-yl)-4-(trifluoromethyl)benzamide]
26 | 1.3 | Cn1ccc(-c2cc(C(=O)Nc3cc(Cc4nnc(N)o4)nn3-c3ccc(F)cc3)ccc2C(F)(F)F)n1 [Compound 92, N-(3-((5-amino-1,3,4-oxadiazol-2-yl)methyl)-1-(4-fluorophenyl)-1H-pyrazol-5-yl)-3-(1-methyl-1H-pyrazol-3-yl)-4-(trifluoromethyl)benzamide]
27 | 32 | Cc1cc(-n2nc(C(=O)N(C)C)cc2NC(=O)c2ccc(C(F)(F)F)c(-c3ccn(C)n3)c2)[nH]n1 [Compound 7, N,N,5′-trimethyl-5-({[3-(1-methyl-1H-pyrazol-3-yl)-4-(trifluoromethyl)phenyl]carbonyl}amino)-2′H-1,3′-bipyrazole-3-carboxamide]
28 | 2.7 | Cc1csc(-c2cc(C(=O)Nc3cc(-c4ccncc4)nn3-c3ccccc3)ccc2Cl)n1 [Compound 21, 4-chloro-3-(4-methyl-1,3-thiazol-2-yl)-N-(1-phenyl-3-pyridin-4-yl-1H-pyrazol-5-yl)benzamide]
29 | 15 | O=C(Nc1cc(Cc2n[nH]c(=O)o2)nn1-c1ccc(F)cc1)c1cc(-c2ncccn2)c(C(F)(F)F)cc1F [Compound 113, 2-fluoro-N-(1-(4-fluorophenyl)-3-((5-oxo-4,5-dihydro-1,3,4-oxadiazol-2-yl)methyl)-1H-pyrazol-5-yl)-5-(pyrimidin-2-yl)-4-(trifluoromethyl)benzamide]
30 | 780 | Cc1nc(-c2ccccc2)c(NC(=O)c2ccc(C(F)(F)F)cc2F)s1 [Compound 1, 2-fluoro-N-(2-methyl-4-phenyl-1,3-thiazol-5-yl)-4-(trifluoromethyl)benzamide]
31 | 7 | CNC(=O)c1cc(NC(=O)c2cc(-c3ncccn3)c(C(F)(F)F)cc2F)n(-c2ccc(F)cc2)n1 [Compound 86, 5-(2-fluoro-5-(pyrimidin-2-yl)-4-(trifluoromethyl)benzamido)-1-(4-fluorophenyl)-N-methyl-1H-pyrazole-3-carboxamide]
32 | 12 | CC(O)c1ccc(-c2cc(NC(=O)c3cc(-c4ncccn4)c(C(F)(F)F)cc3F)n(-c3ccc(F)cc3)n2)nc1 (single isomer, unassigned) [Compound 100, (S or R)-2-fluoro-N-(1-(4-fluorophenyl)-3-(5-(1-hydroxyethyl)pyridin-2-yl)-1H-pyrazol-5-yl)-5-(pyrimidin-2-yl)-4-(trifluoromethyl)benzamide]
